Usually solubility stands for the dissolved amount per volume that the medium holds. As usually defined, the thermodynamic solubility is the concentration in solution at equilibrium with solid. For orientation: amount remaining means what is left of the initial amount, in per cent. The low end stands for a greater loss, the high end for greater stability.

Values after ≈ are worked out from the molar mass of the structure shown. Like-named read-outs stand apart in the source and are kept apart here.

Data set [1] can be described thus: Solubility in different solvents, shake-flask method. In kind it is physicochemical. The note with it: room temperature. As to the method:
Solubility of GT-14 was assessed in different solvents, namely, water, ethanol, PEG 300, PEG 400, propylene glycol, DMSO, DMA, olive oil, soybean oil, Labrasol and Labrafac, by the shake-flask method. Briefly, an excess amount of GT-14 was added to each of the selected solvents in a scintillation vial. The vials were allowed to shake on a mechanical reciprocating shaker at room temperature for 24 h to achieve solvent saturation. The samples were then centrifuged at 15,000 rpm for 15 min at room temperature. The supernatant with dissolved GT-14 was separated from the pellet of the undissolved compound. It was then diluted and analyzed by UPLC to determine the concentration of GT-14. All experiments were conducted in triplicates.

A short description of data set [2]: pH-dependent solubility in USP buffers. To be noted: standard USP buffer, aqueous buffer. In kind it is physicochemical. As to the method:
The pH-dependent stability of GT-14 was assessed in aqueous media of pH ranging from 1 to 10 at room temperature. Standard USP buffers ([11]) were prepared and used for this experiment. Details of buffer solutions are provided in Table I. For the pH solubility profile, GT-14 solid was added in excess amounts in various buffer solutions.

Data set [3] is described as follows: Phase I biotransformation in rat liver microsomes. To be noted: rat, 60 min incubation. The data set is classed as in vitro ADME. As to the method:
The in vitro phase I reaction was conducted using rat liver microsome, which contain the cytochrome P450 monooxygenases that catalyze oxidation, reduction, or hydrolysis reactions to introduce or expose functional groups on the substrate. NADPH is the cofactor to provide the reducing equivalents required for enzymatic activity, while the cofactor regeneration systems (NADP^+, glucose-6-phosphate, and glucose-6-phosphate dehydrogenase) maintain a sustained supply of NADPH during the reaction to facilitate the metabolite, Potassium phosphate buffer (KPI) mimics physiological conditions. The components were added to microcentrifuge tubes in the following order: The stock solution GT-14 (5 μL, 1 mM) was pre-incubated with rat liver microsomes (12.5 μL, 20 mg/mL, Corning Inc.) at 37°C in KPI buffer(452.5 μL, 50 mM) for 5 min before the reaction was initiated by the addition of an NADPH regenerating system, which consisted of 25μL of solution A1(1.3 mM NADP+, 3.3 mM glucose-6-phosphate, 3.3 mM magnesium chloride), and 5μL of solution B1 (0.5 units/mL glucose-6-phosphate dehydrogenase). Reaction mixtures were incubated at 37 °C in a shaker bath, shaking at 100 rpm. […] The quenched samples were vortexed, centrifuged (14,000 rpm for 15 min) and analyzed by UPLC.
For orientation: Liver microsomes are a subcellular fraction often used to study metabolism.

Turning to `C/C(=N\c1ccc(O)cc1)c1cc2ccccc2n1C` [GT-14, (E)-4-((1-(1-methyl-1H-indol-2-yl)ethylidene)amino)phenol], the solubility at 24 h was found to be 107000 µg/mL (≈ 406 mM) in data set [1] (DMA, thermodynamic from solid, n=3, read-out: Solubility in DMA); 80000 µg/mL (≈ 303 mM) in data set [1] (DMSO, thermodynamic from solid, n=3, read-out: Solubility in DMSO); 8600 µg/mL (≈ 32.5 mM) in data set [1] (Labrafac CC (Labrafac Lipophile WL1349), thermodynamic from solid, n=3, read-out: Solubility in Labrafac CC (Labrafac Lipophile WL1349)); 8100 µg/mL (≈ 30.6 mM) in data set [1] (Labrasol, thermodynamic from solid, n=3, read-out: Solubility in Labrasol); 17200 µg/mL (≈ 65.1 mM) in data set [1] (PEG 300, thermodynamic from solid, n=3, read-out: Solubility in PEG 300); 11300 µg/mL (≈ 42.7 mM) in data set [1] (PEG 400, thermodynamic from solid, n=3, read-out: Solubility in PEG 400). Moreover, the solubility at 24 h in data set [1] (olive oil, thermodynamic from solid, n=3, read-out: Solubility in olive oil) worked out at 11400 µg/mL (≈ 43.1 mM); in data set [1] (propylene glycol, thermodynamic from solid, n=3, read-out: Solubility in propylene glycol), 5300 µg/mL (≈ 20.1 mM); in data set [1] (soybean oil, thermodynamic from solid, n=3, read-out: Solubility in soybean oil) it was 7800 µg/mL (≈ 29.5 mM); in data set [1] (water, n=3, read-out: Solubility in water) it was 110 µg/mL (≈ 0.416 mM). In addition, the “Solubility in DMA” value in data set [1] (24 h, n=3) is recorded as “freely soluble”. Besides, the “Solubility in DMSO” value in data set [1] (24 h, n=3) is listed as “freely soluble”. Moreover, the “Solubility in Labrafac CC (Labrafac Lipophile WL1349)” value in data set [1] (24 h, n=3) was “slightly soluble”. Further, the “Solubility in PEG 300” value in data set [1] (24 h, n=3) was “sparingly soluble”. The “Solubility in PEG 400” value in data set [1] (24 h, n=3) was “sparingly soluble”. The “Solubility in olive oil” value in data set [1] (24 h, n=3) was “sparingly soluble”. For the same molecule, the “Solubility in propylene glycol” value in data set [1] (24 h, n=3) was “slightly soluble”. Also, in data set [1] (24 h, n=3), the “Solubility in soybean oil” value is recorded as “slightly soluble”. For the same molecule, in data set [1] (24 h, n=3), the Solubility in water result is recorded as “very slightly soluble”. Further, the solubility (thermodynamic) at 24 h is less than 10 µg/mL in data set [2] (between pH 5 and 7, 24 h); approximately 80 µg/mL (≈ 0.303 mM) in data set [2] (pH 1.2, 24 h); approximately 140 µg/mL (≈ 0.53 mM) in data set [2] (pH 4.6, 24 h). The molecule also registered an amount remaining at 1 h, 10 μM in data set [3] of more than 90%.

For the origin of these results see paper PMC13050480, “Preclinical Development of GT-14, a Novel Inhibitor of Gαi2 Protein: Comprehensive Evaluation of Physicochemical, Metabolic Characteristics and Tissue Distribution” (The AAPS journal, 2025).
